# In PubChem BioAssay (NCI):
# “And” between values parts separate entries of the source, which are not always exact repeats. Equal entries are not always repeated.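 Briefly, cells in 96-well plates were exposed to five compound concentrations for 48 h, and endpoints were estimated by linear interpolation. At the GI50, growth is halved. TGI marks complete inhibition of growth.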
# Assays:
# Assay in all cases: NCI tumour cell line growth inhibition, 48 h
# KM20L2 colon = test system: KM20L2 colon
# XF 498 CNS = test system: XF 498 CNS
# HOP-18 NSCLC = test system: HOP-18 NSCLC
# RXF-631 renal = test system: RXF-631 renal
# M19-MEL melanoma = test system: M19-MEL melanoma
# LXFL 529 NSCLC = test system: LXFL 529 NSCLC
# SNB-78 CNS = test system: SNB-78 CNS
# P388/ADR leukemia = test system: P388/ADR leukemia
# SN12K1 renal = test system: SN12K1 renal
# P388 leukemia = test system: P388 leukemia
SMILES,TGI (KM20L2 colon),TGI (XF 498 CNS) [µM],TGI (HOP-18 NSCLC) [µM],TGI (RXF-631 renal) [µM],TGI (M19-MEL melanoma) [µM],TGI (LXFL 529 NSCLC) [µM],GI50 (LXFL 529 NSCLC) [µM],TGI (SNB-78 CNS) [µM],TGI (P388/ADR leukemia) [µM],TGI (SN12K1 renal) [µM],TGI (P388 leukemia) [µM],GI50 (KM20L2 colon) [µM],GI50 (XF 498 CNS) [µM],GI50 (HOP-18 NSCLC) [µM],GI50 (SNB-78 CNS) [µM]
[N-]=[N+]=CC(=O)c1ccccc1C#CCCc1ccccc1,62.7 µM,41.3,> 100,–,–,–,–,–,–,–,–,–,–,–,–
Nc1ccccc1S(=O)(=O)c1ccccc1,> 100 µM,–,> 100,> 100,> 100,> 100,–,–,–,–,–,–,–,–,–
CCCCCCCCC/C=C/C=C/C(=O)NCC(=O)NC1C(O)C(O)C(Nc2ncnc3nc[nH]c23)OC1C(O)CO (configuration not stated),0.0186 µM and 0.126 µM,–,–,–,0.0253,–,0.0467,–,–,–,–,–,–,–,–
O=C(OCN1C(=O)C2C3C=CC(C2C1=O)C1C2C(=O)N(COC(=O)C4CCCN4)C(=O)C2C31)C1CCCN1 (configuration not stated),> 100 µM,> 100,> 100,> 100,> 100,> 100,–,> 100,–,–,–,–,–,–,–
CN(C)CC(CC1=C(CC(CN(C)C)N(C)C)CCC1)N(C)C (configuration not stated),> 100 µM,> 100,> 100,–,> 100,–,–,–,> 100,> 100,> 100,–,–,–,–
CNC(=O)OCc1c(CO)nc(SC)n1C,> 100 µM,> 100,> 100,–,> 100,–,–,–,> 100,> 100,> 100,–,–,–,–
O=c1cccccc1[O-].O=c1cccccc1[O-].[O]=[U+2]=[O],> 100 µM,47.3,97,–,–,82.6,28.6,67.6,–,–,–,32,25.7,41,28.7
